Earlier results, collected in PubChem BioAssay AID1259409 (Chemical Carcinogenesis Research Information System (CCRIS), 2018).

System: rodent chemically induced tumor inhibition, incidence and multiplicity
Experiment: CCRIS tumor inhibitor studies
Details: Dose [Inhibitor]: 0, Promoter: NONE USED

Question: Which results are given for `COc1ccc(-c2cc(=S)ss2)cc1`?
Answer: tumour outcome (control, treated, inhibition, significance) (Carcinogen: 7,12-DIMETHYLBENZ[A]ANTHRACENE, 57-97-6, 200 PPM IN DIET FOR DURATION OF STUDY BEGINNING 1 WK PRIOR TO CARCINOGEN DOSE (STUDY DURATION: 107 D), Route [Inhibitor]: ORAL, Species: RAT, Strain/Sex: SPRAGUE-DAWLEY/FEMALE, Target Tissue: Type of Lesion: MAMMARY GLAND: ADENOCARCINOMA, Dose [Carcinogen]: 12 MG ONCE): 80%, 75%, 6%, not significant; tumour outcome (control, treated, inhibition, significance) (Carcinogen: 7,12-DIMETHYLBENZ[A]ANTHRACENE, 57-97-6, 400 PPM IN DIET FOR DURATION OF STUDY BEGINNING 1 WK PRIOR TO CARCINOGEN DOSE (STUDY DURATION: 107 D), Route [Inhibitor]: ORAL, Species: RAT, Strain/Sex: SPRAGUE-DAWLEY/FEMALE, Target Tissue: Type of Lesion: MAMMARY GLAND: ADENOCARCINOMA, Dose [Carcinogen]: 12 MG ONCE): 80%, 85%, -6%, not significant; tumour outcome (control, treated, inhibition, significance) (Carcinogen: AZOXYMETHANE, 25843-45-2, 100 PPM IN DIET BEGINNING 2 WK PRIOR TO CARCINOGEN TREATMENT AND CONTINUING FOR DURATION OF STUDY (STUDY DURATION: 56, Route [Inhibitor]: ORAL, Species: RAT, Strain/Sex: F344/MALE, Target Tissue: Type of Lesion: COLON: INVASIVE ADENOCARCINOMA, Dose [Carcinogen]: 15 MG/KG 1/WK FOR 2 WK): 34%, 11%, 68%, p<0.05; tumour outcome (control, treated, inhibition, significance) (Carcinogen: AZOXYMETHANE, 25843-45-2, 100 PPM IN DIET BEGINNING 2 WK PRIOR TO CARCINOGEN TREATMENT AND CONTINUING FOR DURATION OF STUDY (STUDY DURATION: 56, Route [Inhibitor]: ORAL, Species: RAT, Strain/Sex: F344/MALE, Target Tissue: Type of Lesion: COLON: NONINVASIVE ADENOCARCINOMA, Dose [Carcinogen]: 15 MG/KG 1/WK FOR 2 WK): 53%, 47%, 11%, not significant; tumour outcome (control, treated, inhibition, significance) (Carcinogen: AZOXYMETHANE, 25843-45-2, 200 PPM IN DIET BEGINNING 2 WK PRIOR TO CARCINOGEN TREATMENT AND CONTINUING FOR DURATION OF STUDY (STUDY DURATION: 56, Route [Inhibitor]: ORAL, Species: RAT, Strain/Sex: F344/MALE, Target Tissue: Type of Lesion: COLON: INVASIVE ADENOCARCINOMA, Dose [Carcinogen]: 15 MG/KG 1/WK FOR 2 WK): 34%, 8%, 76%, p<0.01; tumour outcome (control, treated, inhibition, significance) (Carcinogen: AZOXYMETHANE, 25843-45-2, 200 PPM IN DIET BEGINNING 2 WK PRIOR TO CARCINOGEN TREATMENT AND CONTINUING FOR DURATION OF STUDY (STUDY DURATION: 56, Route [Inhibitor]: ORAL, Species: RAT, Strain/Sex: F344/MALE, Target Tissue: Type of Lesion: COLON: NONINVASIVE ADENOCARCINOMA, Dose [Carcinogen]: 15 MG/KG 1/WK FOR 2 WK): 53%, 30%, 43%, p<0.05

Question: Which “tumour outcome (control, treated, inhibition, significance)” value (Carcinogen: N-NITROSOBIS(2-OXOPROPYL)AMINE, 60599-38-4, 500 PPM IN DIET FOR 5 WK DURING CARCINOGEN TREATMENT (STUDY DURATION: 30 WK), Route [Inhibitor]: ORAL, Species: HAMSTER, Strain/Sex: SYRIAN/FEMALE, Target Tissue: Type of Lesion: PANCREAS: ADENOCARCINOMA, Dose [Carcinogen]: 10 MG/KG 1/WK FOR 5 WK) does the source give for `CN(C)C(=O)COC(=O)Cc1ccc(OC(=O)c2ccc(N=C(N)N)cc2)cc1` here?
Answer: The value was 24/30 (80%), 18/32 (56%), 30%, p<0.05.

Question: Which “tumour outcome (control, treated, inhibition, significance)” value (Carcinogen: 7,12-DIMETHYLBENZ[A]ANTHRACENE, 57-97-6, 26 MG/KG BW 1/WK FOR 4 WK BEGINNING POST CARCINOGEN DOSE (STUDY DURATION: 4 MO), Route [Inhibitor]: SUBCUTANEOUS, Species: MOUSE, Strain/Sex: ICR/FEMALE, Target Tissue: Type of Lesion: LUNG: TUMOR, Dose [Carcinogen]: 1 MG/KG BW ONCE ADMINISTERED TO NEONATAL MICE) does the source give for `C[n+]1ccc(-c2cc[n+](C)cc2)cc1` here?
Answer: Its value is 4/10 (40%), 2/9 (22%), 45%, not calculated.

Question: And the “tumour outcome (control, treated, inhibition, significance)” value (Carcinogen: 7,12-DIMETHYLBENZ[A]ANTHRACENE, 57-97-6, 26 MG/KG BW 1/WK FOR 4 WK BEGINNING POST CARCINOGEN DOSE (STUDY DURATION: 4 MO), Route [Inhibitor]: SUBCUTANEOUS, Species: MOUSE, Strain/Sex: ICR/FEMALE, Target Tissue: Type of Lesion: LUNG: TUMOR, Dose [Carcinogen]: 10 MG/KG BW ONCE ADMINISTERED TO NEONATAL MICE)?
Answer: The value was 9/11 (82%), 4/7 (57%), 30%, not calculated.

Question: What about the “tumour outcome (control, treated, inhibition, significance)” value (Carcinogen: 7,12-DIMETHYLBENZ[A]ANTHRACENE, 57-97-6, 26 MG/KG BW 1/WK FOR 4 WK BEGINNING POST CARCINOGEN DOSE (STUDY DURATION: 4 MO), Route [Inhibitor]: SUBCUTANEOUS, Species: MOUSE, Strain/Sex: ICR/MALE, Target Tissue: Type of Lesion: LUNG: TUMOR, Dose [Carcinogen]: 1 MG/KG BW ONCE ADMINISTERED TO NEONATAL MICE) of the same compound?
Answer: Its value is 2/10 (20%), 0/9 (0%), 100%, not calculated.

Question: And the “tumour outcome (control, treated, inhibition, significance)” value (Carcinogen: 7,12-DIMETHYLBENZ[A]ANTHRACENE, 57-97-6, 26 MG/KG BW 1/WK FOR 4 WK BEGINNING POST CARCINOGEN DOSE (STUDY DURATION: 4 MO), Route [Inhibitor]: SUBCUTANEOUS, Species: MOUSE, Strain/Sex: ICR/MALE, Target Tissue: Type of Lesion: LUNG: TUMOR, Dose [Carcinogen]: 10 MG/KG BW ONCE ADMINISTERED TO NEONATAL MICE)?
Answer: The value was 9/11 (82%), 4/9 (44%), 46%, not calculated.

Question: And the “tumour outcome (control, treated, inhibition, significance)” value (Carcinogen: 7,12-DIMETHYLBENZ[A]ANTHRACENE, 57-97-6, 26 MG/KG BW 1/WK FOR 4 WK BEGINNING POST CARCINOGEN DOSE (STUDY DURATION: 6 MO), Route [Inhibitor]: SUBCUTANEOUS, Species: MOUSE, Strain/Sex: ICR/MALE, Target Tissue: Type of Lesion: LIVER: TUMOR, Dose [Carcinogen]: 10 MG/KG BW ONCE ADMINISTERED TO NEONATAL MICE)?
Answer: The value was 4/11 (36%), 2/17 (12%), 67%, not calculated.

Question: And the “tumour outcome (control, treated, inhibition, significance)” value (Carcinogen: 7,12-DIMETHYLBENZ[A]ANTHRACENE, 57-97-6, 26 MG/KG BW 1/WK FOR 4 WK BEGINNING POST CARCINOGEN DOSE (STUDY DURATION: 6 MO), Route [Inhibitor]: SUBCUTANEOUS, Species: MOUSE, Strain/Sex: ICR/MALE, Target Tissue: Type of Lesion: LUNG: TUMOR, Dose [Carcinogen]: 1 MG/KG BW ONCE ADMINISTERED TO NEONATAL MICE)?
Answer: The value was 3/10 (30%), 1/9 (11%), 63%, not calculated.

Question: What about the “tumour outcome (control, treated, inhibition, significance)” value (Carcinogen: 7,12-DIMETHYLBENZ[A]ANTHRACENE, 57-97-6, 26 MG/KG BW 1/WK FOR 4 WK BEGINNING POST CARCINOGEN DOSE (STUDY DURATION: 6 MO), Route [Inhibitor]: SUBCUTANEOUS, Species: MOUSE, Strain/Sex: ICR/MALE, Target Tissue: Type of Lesion: LUNG: TUMOR, Dose [Carcinogen]: 10 MG/KG BW ONCE ADMINISTERED TO NEONATAL MICE) of the same compound?
Answer: Its value is 9/11 (82%), 13/17 (76%), 7%, not calculated.
